Measured values published in PubChem BioAssay (NCI).
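The compound was tested at five concentrations on cells cultured in 96-well plates, with a 48-hour exposure period. The concentration for 50% growth inhibition is given as GI50. TGI denotes the concentration required for complete inhibition of growth.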

Tests used:
Test in all cases: NCI tumour cell line growth inhibition, 48 h
KM12 colon = tested on: KM12 colon
NCI/ADR-RES ovarian = tested on: NCI/ADR-RES ovarian
UACC-257 melanoma = tested on: UACC-257 melanoma
SNB-19 CNS = tested on: SNB-19 CNS
NCI-H23 lung = tested on: NCI-H23 lung
SK-OV-3 ovarian = tested on: SK-OV-3 ovarian
HL-60(TB) leukemia = tested on: HL-60(TB) leukemia
HT29 colon = tested on: HT29 colon
ACHN renal = tested on: ACHN renal
NCI-H226 lung = tested on: NCI-H226 lung
T-47D breast = tested on: T-47D breast
OVCAR-3 ovarian = tested on: OVCAR-3 ovarian
EKVX NSCLC = tested on: EKVX NSCLC
RPMI-8226 leukemia = tested on: RPMI-8226 leukemia
HCT-116 colon = tested on: HCT-116 colon
HOP-62 NSCLC = tested on: HOP-62 NSCLC
SN12C renal = tested on: SN12C renal
NCI-H522 lung = tested on: NCI-H522 lung
BT-549 breast = tested on: BT-549 breast
RXF 393 renal = tested on: RXF 393 renal
HOP-92 NSCLC = tested on: HOP-92 NSCLC
MCF7 breast = tested on: MCF7 breast
HCC-2998 colon = tested on: HCC-2998 colon
HCT-15 colon = tested on: HCT-15 colon
OVCAR-5 ovarian = tested on: OVCAR-5 ovarian
LOX IMVI melanoma = tested on: LOX IMVI melanoma
SK-MEL-28 melanoma = tested on: SK-MEL-28 melanoma
SK-MEL-5 melanoma = tested on: SK-MEL-5 melanoma
SW-620 colon = tested on: SW-620 colon

Question: Which GI50 (KM12 colon) does the source give for `C/C(=N/NC(N)=S)c1ccc(Nc2nc(SCC(C)C)nc(-c3ccc(F)cc3)c2C#N)cc1` here?
Answer: Its GI50 is 12.7 µM.

Question: What about the TGI (KM12 colon) of the same compound?
Answer: The TGI was greater than 100 µM.

Question: And the GI50 (NCI/ADR-RES ovarian)?
Answer: The GI50 was 1.89 µM.

Question: What about the TGI (NCI/ADR-RES ovarian) of the same compound?
Answer: Its TGI is 19.1 µM.

Question: And the GI50 (UACC-257 melanoma)?
Answer: The GI50 was 4.56 µM.

Question: What about the TGI (UACC-257 melanoma) of the same compound?
Answer: Its TGI is 30.1 µM.

Question: And the GI50 (SNB-19 CNS)?
Answer: Its GI50 is 9.08 µM.

Question: What about the TGI (SNB-19 CNS) of the same compound?
Answer: Its TGI is 22.4 µM.

Question: And the GI50 (NCI-H23 lung)?
Answer: The GI50 was 1.72 µM.

Question: What about the TGI (NCI-H23 lung) of the same compound?
Answer: The TGI was 12 µM.

Question: What about the GI50 (SK-OV-3 ovarian) of the same compound?
Answer: Its GI50 is 3.1 µM.

Question: What about the TGI (SK-OV-3 ovarian) of the same compound?
Answer: Its TGI is 13.7 µM.

Question: And the GI50 (HL-60(TB) leukemia)?
Answer: Its GI50 is 17.9 µM.

Question: And the TGI (HL-60(TB) leukemia)?
Answer: Its TGI is greater than 100 µM.

Question: What about the GI50 (HT29 colon) of the same compound?
Answer: The GI50 was 1.28 µM.

Question: What about the TGI (HT29 colon) of the same compound?
Answer: The TGI was 15.6 µM.

Question: What about the GI50 (ACHN renal) of the same compound?
Answer: The GI50 was 0.423 µM.

Question: What about the TGI (ACHN renal) of the same compound?
Answer: Its TGI is 11.4 µM.

Question: What about the GI50 (NCI-H226 lung) of the same compound?
Answer: The GI50 was 1.46 µM.

Question: And the TGI (NCI-H226 lung)?
Answer: The TGI was 14.1 µM.

Question: What about the GI50 (T-47D breast) of the same compound?
Answer: Its GI50 is 2.11 µM.

Question: What about the TGI (T-47D breast) of the same compound?
Answer: Its TGI is 29.8 µM.

Question: And the GI50 (OVCAR-3 ovarian)?
Answer: The GI50 was 0.685 µM.

Question: What about the TGI (OVCAR-3 ovarian) of the same compound?
Answer: Its TGI is 4.95 µM.

Question: What about the GI50 (EKVX NSCLC) of the same compound?
Answer: Its GI50 is 4.53 µM.

Question: What about the TGI (EKVX NSCLC) of the same compound?
Answer: The TGI was 25.4 µM.

Question: What about the GI50 (RPMI-8226 leukemia) of the same compound?
Answer: The GI50 was 3.26 µM.

Question: What about the TGI (RPMI-8226 leukemia) of the same compound?
Answer: Its TGI is 80.3 µM.

Question: What about the GI50 (HCT-116 colon) of the same compound?
Answer: Its GI50 is 0.539 µM.

Question: And the TGI (HCT-116 colon)?
Answer: The TGI was 13.6 µM.

Question: What about the GI50 (HOP-62 NSCLC) of the same compound?
Answer: The GI50 was 3.04 µM.

Question: And the TGI (HOP-62 NSCLC)?
Answer: The TGI was 13.6 µM.

Question: What about the GI50 (SN12C renal) of the same compound?
Answer: Its GI50 is 0.717 µM.

Question: What about the TGI (SN12C renal) of the same compound?
Answer: The TGI was 14.1 µM.

Question: And the GI50 (NCI-H522 lung)?
Answer: The GI50 was 2.59 µM.

Question: What about the TGI (NCI-H522 lung) of the same compound?
Answer: Its TGI is 13.1 µM.

Question: What about the GI50 (BT-549 breast) of the same compound?
Answer: The GI50 was 4.04 µM.

Question: What about the TGI (BT-549 breast) of the same compound?
Answer: Its TGI is 18.4 µM.

Question: What about the GI50 (RXF 393 renal) of the same compound?
Answer: The GI50 was 1.95 µM.

Question: And the TGI (RXF 393 renal)?
Answer: Its TGI is 7.16 µM.

Question: What about the GI50 (HOP-92 NSCLC) of the same compound?
Answer: The GI50 was 1.12 µM.

Question: And the TGI (HOP-92 NSCLC)?
Answer: The TGI was 5.01 µM.

Question: And the GI50 (MCF7 breast)?
Answer: Its GI50 is 0.696 µM.

Question: And the TGI (MCF7 breast)?
Answer: Its TGI is 28.8 µM.

Question: And the GI50 (HCC-2998 colon)?
Answer: Its GI50 is 5.69 µM.

Question: What about the TGI (HCC-2998 colon) of the same compound?
Answer: Its TGI is 31.4 µM.

Question: What about the GI50 (HCT-15 colon) of the same compound?
Answer: The GI50 was 0.928 µM.

Question: What about the TGI (HCT-15 colon) of the same compound?
Answer: The TGI was greater than 100 µM.

Question: And the GI50 (OVCAR-5 ovarian)?
Answer: The GI50 was 6.94 µM.

Question: What about the TGI (OVCAR-5 ovarian) of the same compound?
Answer: Its TGI is 47.5 µM.

Question: What about the GI50 (LOX IMVI melanoma) of the same compound?
Answer: Its GI50 is 1.13 µM.

Question: What about the TGI (LOX IMVI melanoma) of the same compound?
Answer: The TGI was 10.4 µM.

Question: What about the GI50 (SK-MEL-28 melanoma) of the same compound?
Answer: The GI50 was 2.76 µM.

Question: What about the TGI (SK-MEL-28 melanoma) of the same compound?
Answer: The TGI was 13.4 µM.

Question: And the GI50 (SK-MEL-5 melanoma)?
Answer: The GI50 was 2.74 µM.

Question: And the TGI (SK-MEL-5 melanoma)?
Answer: Its TGI is 15.6 µM.

Question: What about the GI50 (SW-620 colon) of the same compound?
Answer: The GI50 was 0.62 µM.

Question: And the TGI (SW-620 colon)?
Answer: Its TGI is greater than 100 µM.
